Reference: patent US7261875B2, “Dendritic poly (amino acid) carriers and methods of use” (Board of Regents, The University of Texas System, priority 2001, dated 2007)

How the values were obtained:
[1] = test system: SK-Br3 cells; assay: Fluorescence microscopy, non-specific interaction of near-infrared dyes with FR-negative cells; assay type: cell-based, human; conditions: SK-Br3 cells (do not express FR), 30 minute incubation, 37° C.
Protocol: The folic acid receptors (FR)-mediated binding of near-infrared gluorescent conjugate PAMAM-PG16-ICG-folate was studied using a human nasopharyngeal epidermal carcinoma cell line KB and a human breast carcinoma cell line SK-BR3. KB cells over-express the FR, whereas SK-Br3 cells have no detectable […]. Cells were incubated with PAMAM-PG16-ICG-folate, indocyanine green (ICG, Sigma-Aldrich Corp. St. Louis, Mo.) or ICG-NH2 at 37° C. on cover clips in a 24-well place (Beckton Dickinson Labware, Franklin Kakes, N.J.). Each well contained 0.5 ml Dulbecco's Modified Eagle's medium/nutrient Mixture F-12 Ham (DMEM/F12) containing 10% FBS (Gibco, Grand Island, N.Y.). The final concentration of the conjugate was calculated based on the equivalent does of folic acid and ICG-NH2. For the blocking study, free folic acid was added to the culture medium 30 minutes prior to the addition of the test agents. […] Data were recorded by a Leica DMR microscope (Leica Microsystems Inc. Brannockburn, Ill.) equipped with a 75 W Xenon lamp, Indo-Cyanine Green and FITC filters (775/845 and 480/535, excitation/emission, respectively) (Chroma Technology Corp., Brattleboro, Vt.), Hamamatsue B/W Chilled CCD camera (Hamamatsu Photonics, K.K. Hamamamatsu City, Japan) and Image-Pro Plus 4.5.1 software (Media Cybernetics, L. P., Silver Spring, Md.). […]

[2] = test system: syngeneic murine ovarian OCA-1 tumor; assay: Tumor growth delay after a single intravenous dose; conditions: dose of 60 mg/kg, single i.v. dose, tumors 8 mm
[3] = test system: human vulvar squamous A431 cell line; assay: MTT assay, growth inhibition of A431 cells; assay type: cell-based; conditions: A-431, 72 hrs continuous incubation, equivalent TXL concentrations, read-out: estimated IC50, growth inhibition
Protocol: The MTT assay was used to quantitatively compare the effects of PAMAM-PG8-TXL, linear PG-TXL, and paclitaxel on cell growth in a human vulvar squamous A431 cell line. Cells were plated in a 96-well plate at a density of 2000 cells/well and then incubated with various concentrations of paclitaxel, PAMAM-PG8-TXL, or linear PG-TXL.

[4] = Body weight loss after treatment; conditions: 60 mg/kg, single i.v. dose

Compound | fluorescence / non-specific interaction with cells [1] | growth delay [2] [days] | IC50 [3] [nM] | body weight loss [4] [%]
CC1(C)C(/C=C/C=C/C=C/C=C2\N(CCCCS(=O)(=O)O)c3ccc4ccccc4c3C2(C)C)=[N+](CCCCS(=O)(=O)[O-])c2ccc3ccccc3c21 [ICG, indocyanine green] | did not have detectable non-specific interaction |  |  | 
CC(=O)O[C@H]1C(=O)[C@@]2(C)[C@H]([C@H](OC(=O)c3ccccc3)[C@]3(O)C[C@H](OC(=O)[C@H](O)[C@@H](NC(=O)c4ccccc4)c4ccccc4)C(C)=C1C3(C)C)[C@]1(OC(C)=O)CO[C@@H]1C[C@@H]2O [paclitaxel] |  | 14 | < 1 | 10
